According to patent US8629273B2, “Diazinylpyrazolyl compounds” (Bayer Intellectual Property GmbH, priority 2009, dated 2014):

Tested on: Boophilus microplus
Assay: Boophilus microplus test (BOOPMI injection)
Format: in vivo
Details: 20 μg/animal, injected into the abdomen, after 7 days
Experimental: Solvent: Dimethyl Sulphoxide To produce a suitable preparation of active compound, 10 mg of active compound are mixed with 0.5 ml of solvent, and the concentrate is diluted with water to the desired concentration. The active compound solution is injected into the abdomen (Boophilus microplus) and the animals are transferred into dishes and stored in a climatized room. The activity is monitored for deposition of fertile eggs. After 7 days, the activity in % is determined. 100% means that none of the ticks has laid fertile eggs.

SMILES	activity (no deposition of fertile eggs) [%]
COc1nccnc1-n1nc(C(F)(F)C(F)F)c(-c2cc(Cl)cc(C(F)(F)F)c2)c1N=Cc1ccccc1 [Example 2-11]	100
COc1cc(C=Nc2c(-c3cc(Cl)cc(C(F)(F)F)c3)c(C(F)(F)C(F)F)nn2-c2nccnc2OC)cc(OC)c1OC [Example 2-17]	100
COc1nccnc1-n1nc(C(F)(F)C(F)F)c(-c2cc(Cl)cc(C(F)(F)F)c2)c1N=COC(C)C [Example 2-20]	100
FC(F)(F)c1nn(-c2ncccn2)c(N=Cc2ccc(Cl)cc2)c1-c1cc(Cl)c2c(c1)OCO2 [Example 1-25]	100
COc1ccc(C=Nc2c(-c3cc(Cl)cc(C(F)(F)F)c3)c(C(F)(F)C(F)F)nn2-c2ncccn2)cc1 [Example 1-21]	100

Tested on: Ctenocephalides felis
Assay: Ctenocephalides felis oral (CTECFE)
Format: in vivo
Details: 100 ppm in citrated cattle blood, after 2 days
Experimental: Solvent: 1 part by weight of dimethyl sulphoxide To produce a suitable preparation of active compound, 10 mg of active compound are mixed with 0.5 ml of dimethyl sulphoxide. One part of the concentrate is diluted with citrated cattle blood, and the desired concentration is prepared. 20 unfed adult fleas (Ctenocephalides felis) are placed into a chamber whose top and bottom ends are closed with gauze. A metal cylinder whose bottom end is closed with parafilm is placed onto the chamber. The cylinder contains the blood/active compound preparation, which can be taken up by the fleas through the parafilm membrane. After 2 days, the kill in % is determined. 100% means that all fleas have been killed; 0% means that none of the fleas have been killed.

SMILES	kill [%]
COc1nccnc1-n1nc(C(F)(F)C(F)F)c(-c2cc(Cl)cc(C(F)(F)F)c2)c1N=Cc1ccccc1 [Example 2-11]	90
FC(F)(F)c1nn(-c2ncccn2)c(N=Cc2ccc(Cl)cc2)c1-c1cc(Cl)c2c(c1)OCO2 [Example 1-25]	100
COc1ccc(C=Nc2c(-c3cc(Cl)cc(C(F)(F)F)c3)c(C(F)(F)C(F)F)nn2-c2ncccn2)cc1 [Example 1-21]	100

Tested on: Lucilia cuprina larvae
Assay: Lucilia cuprina test (LUCICU)
Format: in vivo
Details: 100 ppm, treated horse meat, after 2 days
Experimental: Solvent: Dimethyl Sulphoxide To produce a suitable preparation of active compound, 10 mg of active compound are mixed with 0.5 ml of dimethyl sulphoxide, and the concentrate is diluted with water to the desired concentration. Containers containing horse meat treated with the active compound preparation of the desired concentration are populated with Lucilia cuprina larvae. After 2 days, the kill in % is determined. 100% means that all larvae have been killed; 0% means that none of the larvae have been killed.

SMILES	kill [%]
COc1nccnc1-n1nc(C(F)(F)C(F)F)c(-c2cc(Cl)cc(C(F)(F)F)c2)c1N=Cc1ccccc1 [Example 2-11]	100
COc1cc(C=Nc2c(-c3cc(Cl)cc(C(F)(F)F)c3)c(C(F)(F)C(F)F)nn2-c2nccnc2OC)cc(OC)c1OC [Example 2-17]	100
COc1nccnc1-n1nc(C(F)(F)C(F)F)c(-c2cc(Cl)cc(C(F)(F)F)c2)c1N=COC(C)C [Example 2-20]	100
FC(F)(F)c1nn(-c2ncccn2)c(N=Cc2ccc(Cl)cc2)c1-c1cc(Cl)c2c(c1)OCO2 [Example 1-25]	100
COc1ccc(C=Nc2c(-c3cc(Cl)cc(C(F)(F)F)c3)c(C(F)(F)C(F)F)nn2-c2ncccn2)cc1 [Example 1-21]	100

Tested on: larvae of the mustard beetle (Phaedon cochleariae)
Assay: Phaedon test (PHAECO spray treatment)
Format: in vivo
Details: 100 g/ha, after 7 days
Experimental: (§1) Solvents: 78.0 parts by weight of acetone • • 1.5 parts by weight of dimethyl formamide Emulsifier: 0.5 part by weight of alkylaryl polyglycol ether To produce a suitable preparation of active compound, 1 part by weight of active compound is mixed with the stated amounts of solvent and emulsifier, and the concentrate is diluted with emulsifier-containing water to the desired concentration. Discs of Chinese cabbage leaves (Brassica pekinensis) are sprayed with an active compound preparation of the desired concentration and, after drying, populated with larvae of the mustard beetle (Phaedon cochleariae). After 7 days, the activity in % is determined. 100% means that all beetle larvae have been killed; 0% means that none of the beetle larvae have been killed. The test was carried out and evaluated as described in Example B.4.

SMILES	activity (beetle larvae killed)
COc1cc(C=Nc2c(-c3cc(Cl)cc(C(F)(F)F)c3)c(C(F)(F)F)nn2-c2ncccn2)ccc1O [Example 1-10]	100%
CC(C)OC=Nc1c(-c2cc(Cl)cc(C(F)(F)F)c2)c(C(F)(F)C(F)(F)F)nn1-c1ncccn1 [Example 1-44]	100%
FC(F)(F)c1nn(-c2ncccn2)c(N=Cc2ccc(Cl)cc2)c1-c1cc(Cl)c2c(c1)OCO2 [Example 1-25]	100%
COc1ccc(C=Nc2c(-c3cc(Cl)cc(C(F)(F)F)c3)c(C(F)(F)C(F)F)nn2-c2ncccn2)cc1 [Example 1-21]	100%
COc1ccc(CNc2c(-c3cc(Cl)cc(C(F)(F)F)c3)c(C(F)(F)F)nn2-c2ncccn2)cc1 [compound (XXII), reference compound]	no activity

Tested on: caterpillars of the army worm (Spodoptera frugiperda)
Assay: Spodoptera frugiperda test (SPODFR spray treatment)
Format: in vivo
Details: 20 g/ha, after 7 days
Experimental: as §1, with “maize” for “Chinese cabbage”, “(Zea mays)” for “(Brassica pekinensis)”, “caterpillars” for “larvae”, “army worm (Spodoptera frugiperda).” for “mustard beetle (Phaedon cochleariae).”, “caterpillars” for “beetle larvae”, “B.5.” for “B.4.”

SMILES	activity (caterpillars killed) [%]
FC(F)(F)c1nn(-c2ncccn2)c(NCc2ccccc2)c1-c1cc(Cl)c2c(c1)OCO2 [compound (XXI), reference compound]	0

Same assay, conditions: 100 g/ha, after 7 days

SMILES	activity (caterpillars killed)
COc1cc(C=Nc2c(-c3cc(Cl)cc(C(F)(F)F)c3)c(C(F)(F)F)nn2-c2ncccn2)ccc1O [Example 1-10]	100%
CC(C)OC=Nc1c(-c2cc(Cl)cc(C(F)(F)F)c2)c(C(F)(F)C(F)(F)F)nn1-c1ncccn1 [Example 1-44]	100%
FC(F)(F)c1nn(-c2ncccn2)c(N=Cc2ccc(Cl)cc2)c1-c1cc(Cl)c2c(c1)OCO2 [Example 1-25]	100%
COc1ccc(C=Nc2c(-c3cc(Cl)cc(C(F)(F)F)c3)c(C(F)(F)C(F)F)nn2-c2ncccn2)cc1 [Example 1-21]	100%
COc1ccc(CNc2c(-c3cc(Cl)cc(C(F)(F)F)c3)c(C(F)(F)F)nn2-c2ncccn2)cc1 [compound (XXII), reference compound]	no activity

Tested on: greenhouse red spider mite (Tetranychus urticae)
Assay: Tetranychus test, OP resistant (TETRUR spray treatment)
Format: in vivo
Details: 20 g/ha, after 6 days
Experimental: Solvents: 78.0 parts by weight of acetone • • 1.5 parts by weight of dimethyl formamide Emulsifier: 0.5 part by weight of alkylaryl polyglycol ether To produce a suitable preparation of active compound, 1 part by weight of active compound is mixed with the stated amounts of solvent and emulsifier, and the concentrate is diluted with emulsifier-containing water to the desired concentration. Discs of bean leaves (Phaseolus vulgaris) which are infested by all stages of the greenhouse red spider mite (Tetranychus urticae) are sprayed with an active compound preparation of the desired concentration. After 6 days, the activity in % is determined. 100% means that all spider mites have been killed; 0% means that none of the spider mites has been killed. The test was carried out and evaluated as described in Example B.7.

SMILES	activity (spider mites killed) [%]
FC(F)(F)c1nn(-c2ncccn2)c(NCc2ccccc2)c1-c1cc(Cl)c2c(c1)OCO2 [compound (XXI), reference compound]	0

Same assay, conditions: 100 g/ha, after 6 days

SMILES	activity (spider mites killed)
COc1cc(C=Nc2c(-c3cc(Cl)cc(C(F)(F)F)c3)c(C(F)(F)F)nn2-c2ncccn2)ccc1O [Example 1-10]	100%
CC(C)OC=Nc1c(-c2cc(Cl)cc(C(F)(F)F)c2)c(C(F)(F)C(F)(F)F)nn1-c1ncccn1 [Example 1-44]	100%
COc1nccnc1-n1nc(C(F)(F)C(F)F)c(-c2cc(Cl)cc(C(F)(F)F)c2)c1N=COC(C)C [Example 2-20]	100%
COc1ccc(C=Nc2c(-c3cc(Cl)cc(C(F)(F)F)c3)c(C(F)(F)C(F)F)nn2-c2ncccn2)cc1 [Example 1-21]	90%
COc1ccc(CNc2c(-c3cc(Cl)cc(C(F)(F)F)c3)c(C(F)(F)F)nn2-c2ncccn2)cc1 [compound (XXII), reference compound]	no activity

Tested on: adult Musca domestica
Assay: Musca domestica test (MUSCDO)
Format: in vivo
Details: 20 ppm, treated sponge
Experimental: Solvent: Dimethyl sulphoxide To prepare a suitable preparation of active compound, 10 mg of active component are mixed with 0.5 ml of dimethyl sulphoxide, and the concentrate is diluted with water to the desired concentration. Vessels containing a sponge which had been treated with the active compound preparation of the desired concentration are populated with adult Musca domestica. After the desired period of time, the kill in % is determined. 100% means that all flies have been killed; 0% means that none of the flies have been killed.

SMILES	kill [%]
FC(F)(F)c1nn(-c2ncccn2)c(N=Cc2ccc(Cl)cc2)c1-c1cc(Cl)c2c(c1)OCO2 [Example 1-25]	100

Same assay, conditions: 100 ppm, treated sponge

SMILES	kill [%]
COc1nccnc1-n1nc(C(F)(F)C(F)F)c(-c2cc(Cl)cc(C(F)(F)F)c2)c1N=Cc1ccccc1 [Example 2-11]	90
COc1cc(C=Nc2c(-c3cc(Cl)cc(C(F)(F)F)c3)c(C(F)(F)C(F)F)nn2-c2nccnc2OC)cc(OC)c1OC [Example 2-17]	100
COc1nccnc1-n1nc(C(F)(F)C(F)F)c(-c2cc(Cl)cc(C(F)(F)F)c2)c1N=COC(C)C [Example 2-20]	80
COc1ccc(C=Nc2c(-c3cc(Cl)cc(C(F)(F)F)c3)c(C(F)(F)C(F)F)nn2-c2ncccn2)cc1 [Example 1-21]	100

Tested on: Boophilus microplus strain Parkhurst (SP-resistant)
Assay: Boophilus microplus test (DIP)
Format: in vivo
Details: 100 ppm
Experimental: Test animals: adult fed females of the Boophilus microplus strain Parkhurst (SP-resistant)
Solvent: Dimethyl sulphoxide
10 mg of active compound are dissolved in 0.5 ml of dimethyl sulphoxide. To produce a suitable formulation, the active compound solution is diluted with water to the particular desired concentration. This active compound preparation is pipetted into tubes. 8-10 ticks are transferred into a further tube provided with holes. The tube is dipped into the active compound preparation, with all ticks being wetted completely. After the liquid has run off, the ticks are transferred to filter discs in plastic dishes and kept in a climatized room. After the desired period of time, the activity is checked for deposition of fertile eggs. Eggs whose fertility is not visible from the outside are kept in glass tubes in a climatized cupboard under the larvae have hatched. An activity of 100% means that no tick has laid fertile eggs.

SMILES	activity (no deposition of fertile eggs) [%]
COc1nccnc1-n1nc(C(F)(F)C(F)F)c(-c2cc(Cl)cc(C(F)(F)F)c2)c1N=Cc1ccccc1 [Example 2-11]	90
COc1cc(C=Nc2c(-c3cc(Cl)cc(C(F)(F)F)c3)c(C(F)(F)C(F)F)nn2-c2nccnc2OC)cc(OC)c1OC [Example 2-17]	100
FC(F)(F)c1nn(-c2ncccn2)c(N=Cc2ccc(Cl)cc2)c1-c1cc(Cl)c2c(c1)OCO2 [Example 1-25]	100

Tested on: not listed separately
Assay: logP by HPLC on reversed-phase columns (C 18), EU Guideline 79/831 Annex V.A8
Format: physicochemical
Details: ** LC-MS in the neutral range, pH 7.8, 0.001 molar aqueous ammonium bicarbonate and acetonitrile

SMILES	logP
COc1cc(C=Nc2c(-c3cc(Cl)cc(C(F)(F)F)c3)c(C(F)(F)F)nn2-c2ncccn2)ccc1O [Example 1-10]	4.05**
CC(C)OC=Nc1c(-c2cc(Cl)cc(C(F)(F)F)c2)c(C(F)(F)C(F)(F)F)nn1-c1ncccn1 [Example 1-44]	5.31**
COc1nccnc1-n1nc(C(F)(F)C(F)F)c(-c2cc(Cl)cc(C(F)(F)F)c2)c1N=Cc1ccccc1 [Example 2-11]	5.37**
COc1cc(C=Nc2c(-c3cc(Cl)cc(C(F)(F)F)c3)c(C(F)(F)C(F)F)nn2-c2nccnc2OC)cc(OC)c1OC [Example 2-17]	5.12**
COc1nccnc1-n1nc(C(F)(F)C(F)F)c(-c2cc(Cl)cc(C(F)(F)F)c2)c1N=COC(C)C [Example 2-20]	5.1**
FC(F)(F)c1nn(-c2ncccn2)c(N=Cc2ccc(Cl)cc2)c1-c1cc(Cl)c2c(c1)OCO2 [Example 1-25]	4.51**
COc1ccc(C=Nc2c(-c3cc(Cl)cc(C(F)(F)F)c3)c(C(F)(F)C(F)F)nn2-c2ncccn2)cc1 [Example 1-21]	3.69**
